Results taken from the supplement of paper PMC10307832.

Assays:
Idelalisib + Pemetrexed = compound: CC[C@H](Nc1ncnc2[nH]cnc12)c1nc2cccc(F)c2c(=O)n1-c1ccccc1 [Idelalisib] + Nc1nc2[nH]cc(CCc3ccc(C(=O)N[C@@H](CCC(=O)O)C(=O)O)cc3)c2c(=O)[nH]1 [Pemetrexed] (partner 0.2 µM); assay: relative viability (nuclei count vs DMSO), 5 days (fraction); higher = more cells survive
How it was run: (§1)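 Medians of duplicate plates are given as relative viability. That measure is the nuclei count in treated wells divided by the count in vehicle wells. Counts were taken on 4× images of lung cancer cell lines in 1536-well plates, 5 days after pin-tool dosing the day after seeding with one drug alone or a fixed anchor-drug dose plus five library-drug doses (not always all listed) in √10 steps.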

Idelalisib + Olaparib = compound: CC[C@H](Nc1ncnc2[nH]cnc12)c1nc2cccc(F)c2c(=O)n1-c1ccccc1 [Idelalisib] + O=C(c1cc(Cc2n[nH]c(=O)c3ccccc23)ccc1F)N1CCN(C(=O)C2CC2)CC1 [Olaparib] (partner 8 µM); assay: as above
How it was run: as §1

Row | Cell Line | relative viability (Idelalisib + Pemetrexed; first compound 0.04 µM) | relative viability (Idelalisib + Pemetrexed; first compound 0.1265 µM) | relative viability (Idelalisib + Pemetrexed; first compound 0.4 µM) | relative viability (Idelalisib + Pemetrexed; first compound 1.265 µM) | relative viability (Idelalisib + Pemetrexed; first compound 4 µM) | relative viability (Idelalisib + Olaparib; first compound 0.04 µM) | relative viability (Idelalisib + Olaparib; first compound 0.1265 µM) | relative viability (Idelalisib + Olaparib; first compound 0.4 µM) | relative viability (Idelalisib + Olaparib; first compound 1.265 µM) | relative viability (Idelalisib + Olaparib; first compound 4 µM)
1 | NCI-H661 | 0.973 | 0.926 | 0.911 | 0.952 | 0.924 | 0.821 | 0.783 | 0.738 | 0.888 | 0.764
2 | CAL-12T | 1.34 | 0.925 | 1.22 | 1.21 | 1.23 | 0.767 | 0.823 | 0.796 | 0.852 | 0.75
3 | HARA | 0.24 | 0.243 | – | 0.222 | 0.247 | 0.738 | 0.998 | – | 0.758 | 0.792
4 | NCI-H596 | 0.52 | 0.441 | 0.49 | 0.536 | 0.487 | 0.662 | 0.667 | 0.707 | 0.647 | 0.675
5 | LU99A | 0.174 | 0.153 | 0.189 | 0.149 | 0.19 | 0.251 | 0.25 | 0.274 | 0.206 | 0.241
6 | LC-2-ad | 0.282 | 0.276 | 0.25 | 0.267 | 0.26 | 0.691 | 0.728 | 0.764 | 0.805 | 0.734
7 | NCI-H1650 | 0.276 | 0.43 | 0.373 | 0.382 | 0.319 | 0.793 | 0.865 | 0.768 | 0.789 | 0.654
8 | NCI-H1915 | 0.503 | 0.514 | 0.443 | 0.363 | 0.504 | 0.252 | 0.241 | 0.276 | 0.264 | 0.27
9 | ABC-1 | – | – | – | – | – | 0.947 | 0.913 | 0.78 | 0.97 | 0.68
10 | HCC-44 | 0.684 | 0.664 | 0.652 | 0.586 | 0.687 | 1.05 | 0.998 | 0.962 | 1.04 | 1.05
11 | HCC-78 | 0.664 | 0.956 | 0.87 | 0.86 | 0.935 | 0.78 | 0.855 | 0.553 | 0.781 | 0.585
12 | LXF-289 | 0.921 | 0.933 | 0.864 | 0.965 | 0.94 | 1.13 | 1.07 | 1.02 | 1.06 | 1.04
13 | 201T | 0.352 | 0.318 | 0.357 | 0.314 | 0.32 | 0.825 | 0.836 | 0.837 | 0.821 | 0.839
14 | NCI-H1734 | 0.417 | 0.455 | 0.399 | 0.363 | 0.364 | 0.578 | 0.578 | 0.561 | 0.607 | 0.704
15 | NCI-H2126 | 0.848 | 0.739 | 0.523 | 0.769 | 0.619 | 0.933 | 0.916 | 0.834 | 0.972 | 0.898
16 | LOU-NH91 | 0.369 | 0.414 | 0.392 | 0.408 | 0.408 | 0.986 | 0.936 | 0.856 | 0.848 | 0.912
17 | NCI-H1792 | 0.707 | 1.09 | 0.45 | 0.823 | 0.631 | 0.244 | 0.369 | 0.267 | 0.409 | 0.298
